Earlier results as cited in US20200222353A1, “Ketone ester and ketone salt compositions and methods for using the same” (priority 2019, published 2020).

Columns and labels:
[1] = in vivo
[2] = compared with D-BHB

SMILES: C[C@@H](O)CC(=O)O [D-BHB, (3R)-3-hydroxybutanoic acid]
- crossing of the blood-brain barrier (BBB) [1]: cross the blood-brain barrier

SMILES: C[C@H](O)CC(=O)O [L-BHB, (3 S)-3-hydroxybutanoic acid]
- breakdown in the body and use for energy [2]: not to be broken down in the body and used for energy as quickly as D-BHB
